Assay results reported in PubChem BioAssay (NCI).
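Tested at 5 concentrations; 48 h exposure; 96-well plates; endpoints linearly interpolated, else capped at highest concentration. Abbreviation: GI50, concentration required for 50% inhibition of growth. Definition used: TGI = concentration required for complete inhibition of growth.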

Tests used:
Experiment in all cases: inhibition of tumour cell growth, NCI panel, 48 h
NCI-H522 lung = test system: NCI-H522 lung
U251 CNS = test system: U251 CNS
OVCAR-8 ovarian = test system: OVCAR-8 ovarian
KM12 colon = test system: KM12 colon
OVCAR-4 ovarian = test system: OVCAR-4 ovarian
RPMI-8226 leukemia = test system: RPMI-8226 leukemia
MALME-3M melanoma = test system: MALME-3M melanoma
SF-539 CNS = test system: SF-539 CNS
SK-OV-3 ovarian = test system: SK-OV-3 ovarian
HOP-62 NSCLC = test system: HOP-62 NSCLC
NCI-H226 lung = test system: NCI-H226 lung
MDA-MB-435 = test system: MDA-MB-435
ACHN renal = test system: ACHN renal
HCT-116 colon = test system: HCT-116 colon
A498 renal = test system: A498 renal
UACC-62 melanoma = test system: UACC-62 melanoma
MDA-MB-231 breast = test system: MDA-MB-231 breast
SF-268 CNS = test system: SF-268 CNS
LOX IMVI melanoma = test system: LOX IMVI melanoma
UO-31 renal = test system: UO-31 renal
SN12C renal = test system: SN12C renal
TK-10 renal = test system: TK-10 renal
HCC-2998 colon = test system: HCC-2998 colon
NCI-H460 lung = test system: NCI-H460 lung
HL-60(TB) leukemia = test system: HL-60(TB) leukemia
HT29 colon = test system: HT29 colon
CAKI-1 renal = test system: CAKI-1 renal
SNB-75 CNS = test system: SNB-75 CNS
OVCAR-5 ovarian = test system: OVCAR-5 ovarian
OVCAR-3 ovarian = test system: OVCAR-3 ovarian
T-47D breast = test system: T-47D breast
PC-3 prostate = test system: PC-3 prostate
MCF7 breast = test system: MCF7 breast
M14 melanoma = test system: M14 melanoma
BT-549 breast = test system: BT-549 breast
NCI/ADR-RES ovarian = test system: NCI/ADR-RES ovarian
A549 NSCLC = test system: A549 NSCLC
SK-MEL-2 melanoma = test system: SK-MEL-2 melanoma
NCI-H23 lung = test system: NCI-H23 lung
786-0 renal = test system: 786-0 renal
UACC-257 melanoma = test system: UACC-257 melanoma
MOLT-4 leukemia = test system: MOLT-4 leukemia
SK-MEL-5 melanoma = test system: SK-MEL-5 melanoma
SNB-19 CNS = test system: SNB-19 CNS
SR leukemia = test system: SR leukemia
EKVX NSCLC = test system: EKVX NSCLC
HCT-15 colon = test system: HCT-15 colon
SF-295 CNS = test system: SF-295 CNS
DU-145 prostate = test system: DU-145 prostate
COLO 205 colon = test system: COLO 205 colon
K-562 leukemia = test system: K-562 leukemia
CCRF-CEM leukemia = test system: CCRF-CEM leukemia
IGROV1 ovarian = test system: IGROV1 ovarian
HOP-92 NSCLC = test system: HOP-92 NSCLC

**Q.** With `COc1cc(C(=O)/C=C/c2c(-c3cccs3)nc3sc(C)cn23)cc(OC)c1OC` as the molecule, how does the GI50 (NCI-H522 lung) read?
**A.** 1.36 µM

**Q.** And the TGI (NCI-H522 lung)?
**A.** 4.57 µM

**Q.** What about the GI50 (U251 CNS) of the same molecule?
**A.** 3.72 µM

**Q.** And the TGI (U251 CNS)?
**A.** > 100 µM

**Q.** What about the GI50 (OVCAR-8 ovarian) of the same molecule?
**A.** 1.21 µM

**Q.** And the TGI (OVCAR-8 ovarian)?
**A.** 8.31 µM

**Q.** What about the GI50 (KM12 colon) of the same molecule?
**A.** 2.83 µM

**Q.** And the TGI (KM12 colon)?
**A.** > 100 µM

**Q.** What about the GI50 (OVCAR-4 ovarian) of the same molecule?
**A.** 2.85 µM

**Q.** What about the TGI (OVCAR-4 ovarian) of the same molecule?
**A.** 22.3 µM

**Q.** What about the GI50 (RPMI-8226 leukemia) of the same molecule?
**A.** 1.67 µM

**Q.** What about the TGI (RPMI-8226 leukemia) of the same molecule?
**A.** 15.6 µM

**Q.** And the GI50 (MALME-3M melanoma)?
**A.** 3.19 µM

**Q.** And the TGI (MALME-3M melanoma)?
**A.** 15 µM

**Q.** What about the GI50 (SF-539 CNS) of the same molecule?
**A.** 2.12 µM

**Q.** And the TGI (SF-539 CNS)?
**A.** 5.17 µM

**Q.** And the GI50 (SK-OV-3 ovarian)?
**A.** 3.37 µM

**Q.** What about the TGI (SK-OV-3 ovarian) of the same molecule?
**A.** 10.4 µM

**Q.** What about the GI50 (HOP-62 NSCLC) of the same molecule?
**A.** 5.74 µM

**Q.** What about the TGI (HOP-62 NSCLC) of the same molecule?
**A.** 64.5 µM

**Q.** And the GI50 (NCI-H226 lung)?
**A.** 4.6 µM

**Q.** What about the TGI (NCI-H226 lung) of the same molecule?
**A.** 54.8 µM

**Q.** And the GI50 (MDA-MB-435)?
**A.** 2.68 µM

**Q.** And the TGI (MDA-MB-435)?
**A.** 31.6 µM

**Q.** And the GI50 (ACHN renal)?
**A.** 5.15 µM

**Q.** What about the TGI (ACHN renal) of the same molecule?
**A.** > 100 µM

**Q.** What about the GI50 (HCT-116 colon) of the same molecule?
**A.** 3.8 µM

**Q.** And the TGI (HCT-116 colon)?
**A.** > 100 µM

**Q.** And the GI50 (A498 renal)?
**A.** 1.51 µM

**Q.** What about the TGI (A498 renal) of the same molecule?
**A.** 5.78 µM

**Q.** And the GI50 (UACC-62 melanoma)?
**A.** 2.52 µM

**Q.** What about the TGI (UACC-62 melanoma) of the same molecule?
**A.** 19.9 µM

**Q.** And the GI50 (MDA-MB-231 breast)?
**A.** 2.96 µM

**Q.** What about the TGI (MDA-MB-231 breast) of the same molecule?
**A.** 31.1 µM

**Q.** What about the GI50 (SF-268 CNS) of the same molecule?
**A.** 3.84 µM

**Q.** And the TGI (SF-268 CNS)?
**A.** > 100 µM

**Q.** What about the GI50 (LOX IMVI melanoma) of the same molecule?
**A.** 3.84 µM

**Q.** And the TGI (LOX IMVI melanoma)?
**A.** > 100 µM

**Q.** And the GI50 (UO-31 renal)?
**A.** 1.84 µM

**Q.** And the TGI (UO-31 renal)?
**A.** 7.97 µM

**Q.** And the GI50 (SN12C renal)?
**A.** 5.29 µM

**Q.** And the TGI (SN12C renal)?
**A.** > 100 µM

**Q.** What about the GI50 (TK-10 renal) of the same molecule?
**A.** 6.16 µM

**Q.** And the TGI (TK-10 renal)?
**A.** > 100 µM

**Q.** And the GI50 (HCC-2998 colon)?
**A.** 3.87 µM

**Q.** What about the TGI (HCC-2998 colon) of the same molecule?
**A.** 12.4 µM

**Q.** What about the GI50 (NCI-H460 lung) of the same molecule?
**A.** 1.87 µM

**Q.** And the TGI (NCI-H460 lung)?
**A.** 5.3 µM

**Q.** And the GI50 (HL-60(TB) leukemia)?
**A.** 2.69 µM

**Q.** What about the TGI (HL-60(TB) leukemia) of the same molecule?
**A.** > 100 µM

**Q.** And the GI50 (HT29 colon)?
**A.** 3.91 µM

**Q.** And the TGI (HT29 colon)?
**A.** > 100 µM

**Q.** And the GI50 (CAKI-1 renal)?
**A.** 2.92 µM

**Q.** And the TGI (CAKI-1 renal)?
**A.** > 100 µM

**Q.** What about the GI50 (SNB-75 CNS) of the same molecule?
**A.** 2.49 µM

**Q.** What about the TGI (SNB-75 CNS) of the same molecule?
**A.** 6.93 µM

**Q.** And the GI50 (OVCAR-5 ovarian)?
**A.** 82 µM

**Q.** And the TGI (OVCAR-5 ovarian)?
**A.** > 100 µM

**Q.** And the GI50 (OVCAR-3 ovarian)?
**A.** 2.8 µM

**Q.** And the TGI (OVCAR-3 ovarian)?
**A.** 18.7 µM

**Q.** What about the GI50 (T-47D breast) of the same molecule?
**A.** 1.77 µM

**Q.** And the TGI (T-47D breast)?
**A.** 7.65 µM

**Q.** And the GI50 (PC-3 prostate)?
**A.** 2.8 µM

**Q.** And the TGI (PC-3 prostate)?
**A.** > 100 µM

**Q.** What about the GI50 (MCF7 breast) of the same molecule?
**A.** 2.35 µM

**Q.** What about the TGI (MCF7 breast) of the same molecule?
**A.** 20.5 µM

**Q.** And the GI50 (M14 melanoma)?
**A.** 5.59 µM

**Q.** What about the TGI (M14 melanoma) of the same molecule?
**A.** > 100 µM

**Q.** What about the GI50 (BT-549 breast) of the same molecule?
**A.** 3.82 µM

**Q.** What about the TGI (BT-549 breast) of the same molecule?
**A.** 39.9 µM

**Q.** And the GI50 (NCI/ADR-RES ovarian)?
**A.** 2.1 µM

**Q.** And the TGI (NCI/ADR-RES ovarian)?
**A.** 33.9 µM

**Q.** What about the GI50 (A549 NSCLC) of the same molecule?
**A.** 2.69 µM

**Q.** What about the TGI (A549 NSCLC) of the same molecule?
**A.** 19.6 µM

**Q.** And the GI50 (SK-MEL-2 melanoma)?
**A.** 2.73 µM

**Q.** What about the TGI (SK-MEL-2 melanoma) of the same molecule?
**A.** 8.31 µM

**Q.** What about the GI50 (NCI-H23 lung) of the same molecule?
**A.** 4.97 µM

**Q.** What about the TGI (NCI-H23 lung) of the same molecule?
**A.** > 100 µM

**Q.** And the GI50 (786-0 renal)?
**A.** 3.7 µM

**Q.** And the TGI (786-0 renal)?
**A.** 38.2 µM

**Q.** What about the GI50 (UACC-257 melanoma) of the same molecule?
**A.** 3.86 µM

**Q.** And the TGI (UACC-257 melanoma)?
**A.** 66 µM

**Q.** What about the GI50 (MOLT-4 leukemia) of the same molecule?
**A.** 1.27 µM

**Q.** And the TGI (MOLT-4 leukemia)?
**A.** 6.62 µM

**Q.** And the GI50 (SK-MEL-5 melanoma)?
**A.** 0.948 µM

**Q.** And the TGI (SK-MEL-5 melanoma)?
**A.** 3.22 µM

**Q.** What about the GI50 (SNB-19 CNS) of the same molecule?
**A.** 2.91 µM

**Q.** And the TGI (SNB-19 CNS)?
**A.** 13.3 µM

**Q.** And the GI50 (SR leukemia)?
**A.** 1.12 µM

**Q.** What about the TGI (SR leukemia) of the same molecule?
**A.** 5.46 µM

**Q.** And the GI50 (EKVX NSCLC)?
**A.** 1.99 µM

**Q.** And the TGI (EKVX NSCLC)?
**A.** > 100 µM

**Q.** What about the GI50 (HCT-15 colon) of the same molecule?
**A.** 3.38 µM

**Q.** What about the TGI (HCT-15 colon) of the same molecule?
**A.** > 100 µM

**Q.** And the GI50 (SF-295 CNS)?
**A.** 3.69 µM

**Q.** What about the TGI (SF-295 CNS) of the same molecule?
**A.** > 100 µM

**Q.** What about the GI50 (DU-145 prostate) of the same molecule?
**A.** 2.99 µM

**Q.** And the TGI (DU-145 prostate)?
**A.** 14 µM

**Q.** What about the GI50 (COLO 205 colon) of the same molecule?
**A.** 4.01 µM

**Q.** What about the TGI (COLO 205 colon) of the same molecule?
**A.** > 100 µM

**Q.** What about the GI50 (K-562 leukemia) of the same molecule?
**A.** 2.07 µM

**Q.** What about the TGI (K-562 leukemia) of the same molecule?
**A.** > 100 µM

**Q.** And the GI50 (CCRF-CEM leukemia)?
**A.** 1.93 µM

**Q.** What about the TGI (CCRF-CEM leukemia) of the same molecule?
**A.** > 100 µM

**Q.** And the GI50 (IGROV1 ovarian)?
**A.** 2.53 µM

**Q.** And the TGI (IGROV1 ovarian)?
**A.** 6.35 µM

**Q.** And the GI50 (HOP-92 NSCLC)?
**A.** 0.47 µM

**Q.** And the TGI (HOP-92 NSCLC)?
**A.** 4.93 µM
